How the values were obtained:
[1] = test system: dNTP-F1 / scarred primer terminus; assay: Sequencing-like kinetic assay: extension of scarred primer terminus with dNTP-F1 by Taq or Taq197; type: biochemical; settings: 37° C., 40 nM enzyme, 10 nM DNA, 100 nM dNTP-F1
Procedure: Scarred primers were prepared enzymatically; following annealing of natural primers (bearing Rhodamine 110 dye-label, purchased from IDT) to templates, 15 U Klenow fragment (exo−) (New England Biolabs) in its supplied buffer was incubated with 5 μM DNA and 25 μM scarred dNTPs in 100 μL for 20 minutes at room temperature to incorporate scarred nucleotides onto the primer. Upon completion, reaction mixtures were heated at 70° C. for 15 minutes to inactivate Klenow fragment and purified from the scarred dNTPs using a DTR spin column (Edge BioSystems). Scarred primers were observed on an ABI3730 DNA sequencer and conversion to the desired scarred primer was greater than 95%.
Polymerases were added to a mixture containing scarred DNA (prepared in previous section), modified dNTPs, and reaction buffer and incubated at either 37° C. or 50° C. and aliquots removed at variable time points and added directly to a quenching solution containing 100 mM EDTA. Reaction products were characterized on an ABI3730 sequencer using the GeneScan™ LIZ 120® size standard (Applied Biosystems) as a reference. The ratio of peak heights, obtained using ABI Peak Scanner (v1.0), was used to calculate percent primer conversion as a function of time and the data was fit to a first order exponential (Prism 4 by GraphPad).
The mutations found in Sf168, Sf197, and Sf267 were cloned into full length Taq, and extension of a scarred primer terminus was characterized by measuring the rate of incorporation of each dNTP-F1 by Taq or a selected mutant. Taq197 (corresponding to the mutations from Sf197) was the most optimized of the three polymerase mutants, incorporating each dNTP-F1 48- to 377-fold more efficiently than wild type Taq, with no apparent bias toward the identity of the dNTP-F1 or the sequence of the primer, as shown in Table 7 below. Buffer conditions were as follows: 20 mM Tris pH 8.8, 10 mM NaCl, 10 mM KCl, 10 mM ammonium sulfate, 0.1% Triton X-100, 10 mM MgCl2, 37° C., 40 nM enzyme, 10 nM DNA, 100 nM dNTP-F1. N1 nucleotides are scarred (see FIG. 1 panel B).

[2] = test system: incorrect dNTP-F1s opposite dA in the template; assay: Fidelity: misincorporation of the three incorrect dNTP-F1s opposite dA in the template; type: biochemical; settings: even after 90 minutes
Procedure: To examine the fidelity of Taq197, the misincorporation of the three incorrect dNTP-F1s opposite dA in the template was characterized. […] Thus, based on the detection limit of the assay, it was possible to set an upper limit of 5.6×10^−4 min^−1 for the rate of mispair formation, making correct incorporation of modified nucleotides more than 5,000-fold more efficient than mispair formation.

Taq: wild type full length T. aquaticus DNA polymerase I (Taq)
rate of incorporation of dNTP-F1 ([1]; dNTP-F1 C, N1N1N1/N2N2N2 AAA/UUU): 0.002 ± 0.0002 min⁻¹ | rate of incorporation of dNTP-F1 ([1]; dNTP-F1 G, N1N1N1/N2N2N2 UIJU/AAA): 0.14 ± 0.05 min⁻¹ | rate of incorporation of dNTP-F1 ([1]; dNTP-F1 N = A, N1N1N1/N2N2N2 UUU/AAA): 0.011 ± 0.002 min⁻¹ | rate of incorporation of dNTP-F1 ([1]; dNTP-F1 U, N1N1N1/N2N2N2 CCC/GGG): 0.05 ± 0.02 min⁻¹ | synthesis of mispairs [2]: does not measurably synthesize any of the mispairs

Reference: patent US20100203524A1, “POLYMERASES AND METHODS OF USE THEREOF” (Helicos Biosciences Corporation, priority 2008, published 2010)
